Target: human NK-3 receptor (Homo sapiens (Human), UniProt P29371)
Assay: 3H-SB222200 binding competition assay with human NK-3 receptor
Conditions: 3H-SB222200 displacement, CHO cell membranes expressing human NK3 receptor; read-out: Ki range
Procedure, shortened: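 Membranes from CHO cells expressing human NK3 receptor incubated with 5 nM 3H-SB222200 and test compound in HEPES 25 mM/NaCl 0.1M/CaCl2 1 mM/MgCl2 5 mM/BSA 0.5%/saponin 10 μg/ml, pH 7.4. Bound radioligand counted after filtration; Ki calculated, reported in bands (+++ <500 nM to # >5 μM).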

Chain of human NK-3 receptor (P29371 whole entry): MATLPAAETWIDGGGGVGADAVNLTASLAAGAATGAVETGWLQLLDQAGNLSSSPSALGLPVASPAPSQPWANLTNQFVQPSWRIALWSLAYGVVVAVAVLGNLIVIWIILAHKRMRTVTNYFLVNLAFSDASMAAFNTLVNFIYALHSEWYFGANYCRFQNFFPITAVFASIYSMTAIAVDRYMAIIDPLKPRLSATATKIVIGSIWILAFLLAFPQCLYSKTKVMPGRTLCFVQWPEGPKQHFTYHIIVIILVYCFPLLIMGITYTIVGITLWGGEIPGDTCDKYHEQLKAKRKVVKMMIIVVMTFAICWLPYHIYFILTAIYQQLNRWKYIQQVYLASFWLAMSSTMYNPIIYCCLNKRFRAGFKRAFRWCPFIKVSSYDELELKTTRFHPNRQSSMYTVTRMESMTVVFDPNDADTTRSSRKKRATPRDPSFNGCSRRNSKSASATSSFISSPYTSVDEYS

| SMILES | Ki [nM] |
| --- | --- |
| Cc1scnc1-c1nnc2n1CCN(C(=O)c1ccc(-c3cccs3)cc1)C2 [Compound 275, (3-(5-methylthiazol-4-yl)-5,6-dihydro-[1,2,4]triazolo[4,3-a]pyrazin-7(8H)-yl)(4-(thiophen-2-yl)phenyl)methanone] | > 5000 |
| C[C@H]1c2nnc(-c3csc(N4CCOCC4)n3)n2CCN1C(=O)c1ccc(-c2ccc(F)cc2)cc1 [Compound 161, (S)-(4′-fluoro-[1,1′-biphenyl]-4-yl)(8-methyl-3-(2-morpholinothiazol-4-yl)-5,6-dihydro-[1,2,4]triazolo[4,3-a]pyrazin-7(8H)-yl)methanone] | 1000 to 5000 |
| CC1(C)CN(c2nc(-c3nnc4n3CCN(C(=O)c3ccc(-c5cccs5)cc3)C4)cs2)CCO1 [Compound 266, (3-(2-(2,2-dimethylmorpholino)thiazol-4-yl)-5,6-dihydro-[1,2,4]triazolo[4,3-a]pyrazin-7(8H)-yl)(4-(thiophen-2-yl)phenyl)methanone] | < 500 |
| O=C(c1ccc(F)cc1)N1CCn2c(nnc2-c2csc(-c3ccccc3)n2)C1 [Compound 8, (4-fluorophenyl)(3-(2-phenylthiazol-4-yl)-5,6-dihydro-[1,2,4]triazolo[4,3-a]pyrazin-7(8H)-yl)methanone] | < 500 |
| O=C(c1ccc(F)cc1)N1CCn2c(nnc2-c2ccc3cccc(F)c3n2)C1 [Compound 22, (4-fluorophenyl)(3-(8-fluoroquinolin-2-yl)-5,6-dihydro-[1,2,4]triazolo[4,3-a]pyrazin-7(8H)-yl)methanone] | 500 to 1000 |
| O=C(c1ccc(-c2ccc(F)cc2)cc1)N1CCn2c(nnc2-c2ccccn2)C1 [Compound 16, (4′-fluoro-[1,1′-biphenyl]-4-yl)(3-(pyridin-2-yl)-5,6-dihydro-[1,2,4]triazolo[4,3-a]pyrazin-7(8H)-yl)methanone] | 1000 to 5000 |
| O=C(c1ccc(F)cc1)N1CCn2c(nnc2-c2csc(-c3ccc(N4CCCCC4)cc3)n2)C1 [Compound 244, (4-fluorophenyl)(3-(2-(4-(piperidin-1-yl)phenyl)thiazol-4-yl)-5,6-dihydro-[1,2,4]triazolo[4,3-a]pyrazin-7(8H)-yl)methanone] | 500 to 1000 |
| CC1c2nnc(-c3csc(N4CCOCC4)n3)n2CCN1C(=O)c1ccc(-c2cccs2)cc1 (stereo not drawn) [Compound 56, (8-methyl-3-(2-morpholinothiazol-4-yl)-5,6-dihydro-[1,2,4]triazolo[4,3-a]pyrazin-7(8H)-yl)(4-(thiophen-2-yl)phenyl)methanone] | < 500 |
| Cc1ccc(C(=O)N2CCn3c(nnc3-c3ccccn3)C2)cc1 [Compound 232, (3-(pyridin-2-yl)-5,6-dihydro-[1,2,4]triazolo[4,3-a]pyrazin-7(8H)-yl)(p-tolyl)methanone] | 1000 to 5000 |
| CC1c2nnc(-c3ccc4ccccc4n3)n2CCN1C(=O)c1ccc(-c2cccs2)cc1 (stereo not drawn) [Compound 65, (8-methyl-3-(quinolin-2-yl)-5,6-dihydro-[1,2,4]triazolo[4,3-a]pyrazin-7(8H)-yl)(4-(thiophen-2-yl)phenyl)methanone] | < 500 |
| Cc1ccc(-c2nc(-c3nnc4n3CCN(C(=O)c3ccc(-c5cccs5)cc3)C4)cs2)cc1 [Compound 191, (4-(thiophen-2-yl)phenyl)(3-(2-(p-tolyl)thiazol-4-yl)-5,6-dihydro-[1,2,4]triazolo[4,3-a]pyrazin-7(8H)-yl)methanone] | > 5000 |
| CN(C)c1ccc(C(=O)N2CCn3c(nnc3-c3csc(-c4ccc(F)cc4)n3)C2)cc1 [Compound 253, (4-(dimethylamino)phenyl)(3-(2-(4-fluorophenyl)thiazol-4-yl)-5,6-dihydro-[1,2,4]triazolo[4,3-a]pyrazin-7(8H)-yl)methanone] | 500 to 1000 |
| Cn1nc(-c2ccccc2)cc1-c1nnc2n1CCN(C(=O)c1ccc(-c3cccs3)cc1)C2 [Compound 220, (3-(1-methyl-3-phenyl-1H-pyrazol-5-yl)-5,6-dihydro-[1,2,4]triazolo[4,3-a]pyrazin-7(8H)-yl)(4-(thiophen-2-yl)phenyl)methanone] | < 500 |
| O=C(c1ccc(F)cc1)N1CCn2c(nnc2-c2ccc3cccc(Cl)c3n2)C1 [Compound 23, (3-(8-chloroquinolin-2-yl)-5,6-dihydro-[1,2,4]triazolo[4,3-a]pyrazin-7(8H)-yl)(4-fluorophenyl)methanone] | 500 to 1000 |
| O=C(c1ccc(-c2cccs2)cc1)N1CCn2c(nnc2-c2csc(-c3ccncc3)n2)C1 [Compound 228, (3-(2-(pyridin-4-yl)thiazol-4-yl)-5,6-dihydro-[1,2,4]triazolo[4,3-a]pyrazin-7(8H)-yl)(4-(thiophen-2-yl)phenyl)methanone] | < 500 |
| CN1CCN(c2ccc(-c3nc(-c4nnc5n4CCN(C(=O)c4ccc(F)cc4)C5)cs3)cc2)CC1 [Compound 242, (4-fluorophenyl)(3-(2-(4-(4-methylpiperazin-1-yl)phenyl)thiazol-4-yl)-5,6-dihydro-[1,2,4]triazolo[4,3-a]pyrazin-7(8H)-yl)methanone] | 500 to 1000 |
| O=C(c1ccc(-c2ccccc2)nc1)N1CCn2c(nnc2-c2ccc3ccccc3n2)C1 [Compound 91, (6-phenylpyridin-3-yl)(3-(quinolin-2-yl)-5,6-dihydro-[1,2,4]triazolo[4,3-a]pyrazin-7(8H)-yl)methanone] | < 500 |
| C[C@H]1c2nnc(-c3ccc4ccccc4n3)n2CCN1C(=O)c1ccc(-c2cccs2)cc1 [Compound 163, (S)-(8-methyl-3-(quinolin-2-yl)-5,6-dihydro-[1,2,4]triazolo[4,3-a]pyrazin-7(8H)-yl)(4-(thiophen-2-yl)phenyl)methanone] | 500 to 1000 |
| O=C(c1ccc(F)cc1)N1CCn2c(nnc2-c2csc(-c3ccc(F)cc3)n2)C1 [Compound 32, (4-fluorophenyl)(3-(2-(4-fluorophenyl)thiazol-4-yl)-5,6-dihydro-[1,2,4]triazolo[4,3-a]pyrazin-7(8H)-yl)methanone] | < 500 |
| N#Cc1ccc(-c2ccc(C(=O)N3CCn4c(nnc4-c4ccc5ccccc5n4)C3)cc2)cc1 [Compound 103, 4′-(3-(quinolin-2-yl)-5,6,7,8-tetrahydro-[1,2,4]triazolo[4,3-a]pyrazine-7-carbonyl)-[1,1′-biphenyl]-4-carbonitrile] | 1000 to 5000 |
| O=C(c1ccc(-c2cccs2)cc1)N1CCn2c(nnc2-c2csc(-c3ccc(N4CCOCC4)cc3)n2)C1 [Compound 239, (3-(2-(4-morpholinophenyl)thiazol-4-yl)-5,6-dihydro-[1,2,4]triazolo[4,3-a]pyrazin-7(8H)-yl)(4-(thiophen-2-yl)phenyl)methanone] | 1000 to 5000 |
| O=C(c1ccc(F)cc1)N1CCn2c(nnc2-c2csc(-c3ccccn3)n2)C1 [Compound 230, (4-fluorophenyl)(3-(2-(pyridin-2-yl)thiazol-4-yl)-5,6-dihydro-[1,2,4]triazolo[4,3-a]pyrazin-7(8H)-yl)methanone] | 1000 to 5000 |
| O=C(c1ccc(F)cc1)N1CCn2c(nnc2-c2nc3ccccc3s2)C1 [Compound 59, (3-(benzo[d]thiazol-2-yl)-5,6-dihydro-[1,2,4]triazolo[4,3-a]pyrazin-7(8H)-yl)(4-fluorophenyl)methanone] | < 500 |
| O=C(c1ccc(-c2cccs2)cc1)N1CCn2c(nnc2-c2csc(N3CCCCC3)n2)C1 [Compound 247, (3-(2-(piperidin-1-yl)thiazol-4-yl)-5,6-dihydro-[1,2,4]triazolo[4,3-a]pyrazin-7(8H)-yl)(4-(thiophen-2-yl)phenyl)methanone] | < 500 |

From patent publication US10544150B2, “NK-3 receptor selective antagonist compounds, pharmaceutical composition and methods for use in NK-3 receptors mediated disorders” (Ogeda SA, priority 2010, dated 2020)
